Measured values reported in the NIST ThermoML archive (doi:10.1016/j.jct.2009.01.006).

Legend:
[1] = xn = mol fraction of the nth substance listed; conditions: 303.15 K, 101 kPa, Liquid, Direct dilatometry
[2] = φn = volume fraction of the nth substance listed; conditions: 303.15 K, 101 kPa, Liquid; for speed of sound: Linear variable-path acoustic interferometer
[3] = 303.15 K, Liquid; for speed of sound: Linear variable-path acoustic interferometer
[4] = refractive index (Na D-line) (dimensionless); conditions: 298.15 K; 101.33 kPa; Liquid; Standard Abbe refractometry

CCCC(C)=O [pentan-2-one] + CN1CCCC1=O
Conditions | excess molar volume [m3/mol] | mass density [kg/m3] | speed of sound [m/s]
[1], x2 = 0.0776 | -1.11e-07 | – | –
[1], x2 = 0.1284 | -1.74e-07 | – | –
[1], x2 = 0.2108 | -2.81e-07 | – | –
[1], x2 = 0.2852 | -3.59e-07 | – | –
[1], x2 = 0.3669 | -4.39e-07 | – | –
[1], x2 = 0.4655 | -4.98e-07 | – | –
[1], x2 = 0.5205 | -5.21e-07 | – | –
[1], x2 = 0.5851 | -5.28e-07 | – | –
[1], x2 = 0.6353 | -5.29e-07 | – | –
[1], x2 = 0.7406 | -4.68e-07 | – | –
[1], x2 = 0.8612 | -3.15e-07 | – | –
[1], x2 = 0.9366 | -1.67e-07 | – | –
[1], x2 = 0.9769 | -7.6e-08 | – | –
[2], φ2 = 0 | – | 796.54 | 1202
[2], φ2 = 0.1165 | – | 824.33 | 1231
[2], φ2 = 0.193 | – | 842.58 | 1254
[2], φ2 = 0.3417 | – | 877.77 | 1308
[2], φ2 = 0.4382 | – | 900.32 | 1345
[2], φ2 = 0.493 | – | 913.03 | 1367
[2], φ2 = 0.6094 | – | 939.74 | 1403
[2], φ2 = 0.7189 | – | 964.15 | 1429
[2], φ2 = 0.8475 | – | 991.98 | 1467
[2], φ2 = 0.9297 | – | 1009.18 | 1498

O=C1CCCCC1 [cyclohexanone]
[3]
Conditions | mass density [kg/m3] | speed of sound [m/s]
101 kPa | 937.58 | 1386
101.33 kPa | 937.55 | 1385

Conditions | refractive index
[4] | 1.4501

CN1CCCC1=O [N-methylpyrrolidone] + CCC(C)=O
Conditions | speed of sound [m/s]
[2], φ1 = 1 | 1552

CN1CCCC1=O [N-methylpyrrolidone] + CC(=O)CC(C)C
[2], φ1 = 1
Conditions | mass density [kg/m3] | speed of sound [m/s]
– | 1023.4 | 1552

CCC(=O)CC [pentan-3-one] + CN1CCCC1=O
Conditions | excess molar volume [m3/mol] | mass density [kg/m3] | speed of sound [m/s]
[1], x2 = 0.0634 | -1.55e-07 | – | –
[1], x2 = 0.1526 | -2.89e-07 | – | –
[1], x2 = 0.2446 | -3.57e-07 | – | –
[1], x2 = 0.3948 | -3.98e-07 | – | –
[1], x2 = 0.4476 | -4.12e-07 | – | –
[1], x2 = 0.5371 | -4.2e-07 | – | –
[1], x2 = 0.591 | -4.22e-07 | – | –
[1], x2 = 0.7146 | -4.13e-07 | – | –
[1], x2 = 0.7962 | -3.45e-07 | – | –
[1], x2 = 0.9124 | -2.31e-07 | – | –
[1], x2 = 0.9626 | -1.06e-07 | – | –
[2], φ2 = 0 | – | 804.57 | 1198
[2], φ2 = 0.1401 | – | 837.52 | 1230
[2], φ2 = 0.2265 | – | 857.08 | 1252
[2], φ2 = 0.3711 | – | 889.22 | 1297
[2], φ2 = 0.423 | – | 900.7 | 1316
[2], φ2 = 0.5121 | – | 920.45 | 1347
[2], φ2 = 0.5666 | – | 932.49 | 1365
[2], φ2 = 0.6937 | – | 960.46 | 1415
[2], φ2 = 0.79 | – | 981.3 | 1452
[2], φ2 = 0.904 | – | 1004.83 | 1502

CCCC(C)=O [pentan-2-one]
[3]
Conditions | mass density [kg/m3] | speed of sound [m/s]
101 kPa | 796.54 | 1202
101.33 kPa | 796.58 | 1197

Conditions | refractive index
[4] | 1.3883

CCC(C)=O [butanone] + CN1CCCC1=O
Conditions | excess molar volume [m3/mol] | speed of sound [m/s]
[1], x2 = 0.0705 | -7.1e-08 | –
[1], x2 = 0.1436 | -1.42e-07 | –
[1], x2 = 0.2097 | -1.89e-07 | –
[1], x2 = 0.2854 | -2.44e-07 | –
[1], x2 = 0.4102 | -2.93e-07 | –
[1], x2 = 0.5043 | -3.02e-07 | –
[1], x2 = 0.5795 | -2.96e-07 | –
[1], x2 = 0.6942 | -2.56e-07 | –
[1], x2 = 0.8068 | -1.89e-07 | –
[1], x2 = 0.9134 | -9.8e-08 | –
[1], x2 = 0.9545 | -5.1e-08 | –
[2], φ2 = 0 | – | 1167
[2], φ2 = 0.1517 | – | 1214
[2], φ2 = 0.2207 | – | 1245
[2], φ2 = 0.2988 | – | 1282
[2], φ2 = 0.426 | – | 1345
[2], φ2 = 0.5205 | – | 1391
[2], φ2 = 0.5952 | – | 1421
[2], φ2 = 0.7078 | – | 1456
[2], φ2 = 0.8167 | – | 1483
[2], φ2 = 0.9184 | – | 1519
